The values below are quoted from earlier work in patent US20100113581A1, “COMBINATION THERAPIES FOR THE TREATMENT OF OBESITY” (priority 2008, published 2010).

The conditions of series [1]: cyclodextrin derivatives.
The conditions of series [2]: published studies of weight loss medications.

Consider triacetyl-beta-cyclodextrin, for which the solubility in water entry in series [1] was “insoluble”. On to `CCN[C@@H](C)Cc1cccc(C(F)(F)F)c1` [dexfenfluramine], for which, in series [2], the “weight loss of body weight for drug compared with placebo” value (“weight loss … compared with placebo” for short) is on record as “about 5%”. Consider G-2-beta-cyclodextrin, for which the solubility in water in series [1] is 147 % (w/v). For the molecule `CC(C)CC(N(C)C)C1(c2ccc(Cl)cc2)CCC1` (centres unmarked) [sibutramine], the “weight loss … compared with placebo” value in series [2] was “about 5%”. On to `CCCCCCCCCCC[C@@H](C[C@@H]1OC(=O)[C@H]1CCCCCC)OC(=O)[C@H](CC(C)C)NC=O` [orlistat], for which the “weight loss … compared with placebo” value in series [2] is given as “about 5%”.
